The target in test [1] is T1, human MetAP2 enzyme (Homo sapiens, UniProt P50579). Nature of the test: MetAP2 enzyme assay, enzyme complexed with cobalt ions. The following applies: MetAP2 Co pIC50, MetAP2 enzyme complexed with cobalt ions; Met-AMC substrate at Km.
Test [2] has as its target T1, human MetAP2 enzyme. Description: MetAP2 enzyme assay, enzyme complexed with manganese ions. Conditions: MetAP2 Mn pIC50, MetAP2 enzyme complexed with manganese ions; Met-AMC substrate at Km.

The record followed here is patent publication US9434743B2, “Indazole derivatives” (TAKEDA PHARMACEUTICAL COMPANY LIMITED, priority 2012, dated 2016).

pIC50: −log10 of the molar value.

T1 sequence (P50579 whole entry): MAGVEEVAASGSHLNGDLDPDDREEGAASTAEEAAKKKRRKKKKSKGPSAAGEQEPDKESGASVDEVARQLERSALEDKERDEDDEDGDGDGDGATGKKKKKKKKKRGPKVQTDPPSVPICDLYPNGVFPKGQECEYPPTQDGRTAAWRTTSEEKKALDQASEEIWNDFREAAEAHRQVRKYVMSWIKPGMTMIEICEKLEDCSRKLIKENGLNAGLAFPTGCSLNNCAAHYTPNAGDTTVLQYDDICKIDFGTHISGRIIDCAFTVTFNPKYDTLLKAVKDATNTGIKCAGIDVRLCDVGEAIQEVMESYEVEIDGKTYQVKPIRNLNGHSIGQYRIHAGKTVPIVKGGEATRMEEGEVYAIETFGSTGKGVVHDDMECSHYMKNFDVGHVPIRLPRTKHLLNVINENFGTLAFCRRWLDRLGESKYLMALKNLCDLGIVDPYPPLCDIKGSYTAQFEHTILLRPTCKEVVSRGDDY

As for `COc1ccc(N)c(-c2cc(C(F)(F)F)cc3[nH]ncc23)n1` [Example 184, 6-methoxy-2-(6-(trifluoromethyl)-1H-indazol-4-yl)pyridin-3-amine], the pIC50 at human MetAP2 enzyme [1] is 6.30; on human MetAP2 enzyme [2], 7.70.

Turning to `OCc1cccc(-c2cc(C(F)(F)F)cc3[nH]ncc23)c1` [Example 8, (3-(6-(trifluoromethyl)-1H-indazol-4-yl)phenyl)methanol], the pIC50 against human MetAP2 enzyme [1] is 7.40; at human MetAP2 enzyme [2], 8.50.

For `Cc1cc(Cn2nc(C)c(-c3cc(C(F)(F)F)cc4[nH]ncc34)c2CO)on1` (single isomer, unassigned) [Example 412, (3-methyl-1-((3-methylisoxazol-5-yl)methyl)-4-(6-(trifluoromethyl)-1H-indazol-4-yl)-1H-pyrazol-5-yl)methanol], the values for the negative-log IC50 (pIC50) at human MetAP2 enzyme [1] and on human MetAP2 enzyme [2] were 7.80 and 8.40, respectively.

Regarding `Nc1ncc(Cl)cc1-c1cc(C(F)(F)F)cc2[nH]ncc12` [Example 137, 5-chloro-3-(6-(trifluoromethyl)-1H-indazol-4-yl)pyridin-2-amine], the negative-log IC50 (pIC50) was 6.80 at human MetAP2 enzyme [1] and 8.00 on human MetAP2 enzyme [2].

For `Cc1nc2cc(-c3cc(C(F)(F)F)cc4[nH]ncc34)cnc2[nH]1` [Example 341, 2-methyl-6-(6-(trifluoromethyl)-1H-indazol-4-yl)-3H-imidazo[4,5-b]pyridine], the pIC50 against human MetAP2 enzyme [1] is 7.80; against human MetAP2 enzyme [2], 8.10.

For `O=S(=O)(c1ccc(-c2cc(C(F)(F)F)cc3[nH]ncc23)cc1)N1CCOCC1` [Example 225, 4-(4-(6-(trifluoromethyl)-1H-indazol-4-yl)phenylsulfonyl)morpholine], the figures for the pIC50 against human MetAP2 enzyme [1] and against human MetAP2 enzyme [2] were 7.00 and 8.10, respectively.

On to `Cc1c(-c2cc(C(F)(F)F)cc3[nH]ncc23)ccc(=O)n1CC#N` [Example 405, 2-(6-methyl-2-oxo-5-(6-(trifluoromethyl)-1H-indazol-4-yl)pyridin-1(2H)-yl)acetonitrile], for which the pIC50 against human MetAP2 enzyme [1] is 7.10; at human MetAP2 enzyme [2] it was 8.00.

Turning to `COC(=O)c1ccc(-c2cc(C(F)(F)F)cc3[nH]ncc23)cn1` [Example 269, methyl 5-(6-(trifluoromethyl)-1H-indazol-4-yl)picolinate], the pIC50 on human MetAP2 enzyme [1] was 7.20; against human MetAP2 enzyme [2], 8.40.

On to `Cc1nn(CC(N)=O)c(C)c1-c1cc(C(F)(F)F)cc2[nH]ncc12` [Example 173, 2-(3,5-dimethyl-4-(6-(trifluoromethyl)-1H-indazol-4-yl)-1H-pyrazol-1-yl)acetamide], for which the pIC50 is 7.50 against human MetAP2 enzyme [1] and 7.80 on human MetAP2 enzyme [2].

As for `COc1ccc(OC)c(-c2cc(C(F)(F)F)cc3[nH]ncc23)c1` [Example 86, 4-(2,5-dimethoxyphenyl)-6-(trifluoromethyl)-1H-indazole], the pIC50 against human MetAP2 enzyme [1] is 7.80; against human MetAP2 enzyme [2] it was 8.50.

On to `FC(F)(F)c1cc(-c2cccnc2)c2cn[nH]c2c1` [Example 19, 4-(pyridin-3-yl)-6-(trifluoromethyl)-1H-indazole], for which the pIC50 on human MetAP2 enzyme [1] is 7.20; against human MetAP2 enzyme [2] it was 8.50.

On to `O=C(NCCO)c1ccc(-c2cc(C(F)(F)F)cc3[nH]ncc23)c(Cl)c1` [Example 331, 3-chloro-N-(2-hydroxyethyl)-4-(6-(trifluoromethyl)-1H-indazol-4-yl)benzamide], for which the pIC50 at human MetAP2 enzyme [1] is 7.80; at human MetAP2 enzyme [2] it was 8.00.

For the compound `FC(F)(F)c1cc(-c2cnc3[nH]c(C(F)(F)F)nc3c2)c2cn[nH]c2c1` [Example 242, 2-(trifluoromethyl)-6-(6-(trifluoromethyl)-1H-indazol-4-yl)-3H-imidazo[4,5-b]pyridine], the pIC50 is 7.30 at human MetAP2 enzyme [1] and 8.20 on human MetAP2 enzyme [2].

For `Cc1nn(CC(=O)N2CCOCC2)c(C)c1-c1cc(C(F)(F)F)cc2[nH]ncc12` [Example 317, 2-(3,5-dimethyl-4-(6-(trifluoromethyl)-1H-indazol-4-yl)-1H-pyrazol-1-yl)-1-morpholinoethanone], the pIC50 was 7.20 against human MetAP2 enzyme [1] and 7.70 against human MetAP2 enzyme [2].

In general, pIC50 refers to the negative decadic logarithm of the IC50, by convention in mol/L. The low end stands for a high IC50, the high end for a low IC50.
